Results taken from US10172362B2, “Biofilms, components and methods of use to reduce biofouling and contamination” (THE PENN STATE RESEARCH FOUNDATION, priority 2015, dated 2019).

B1: BdcA E50Q variant (protein, UniProt P39333 1-237, looked up, variant E50Q)
Cyclic-di-GMP-binding biofilm …: MGAFTGKTVLILGGSRGIGAAIVRRFVTDGANVRFTYAGSKDAAKRLAQQTGATAVFTDSADRDAVIDVVRKSGALDILVVNAGIGVFGEALELNADDIDRLFKINIHAPYHASVEAARQMPEGGRILIIGSVNGDRMPVAGMAAYAASKSALQGMARGLARDFGPRGITINVVQPGPIDTDANPANGPMRDMLHSLMAIKRHGQPEEVAGMVAWLAGPEASFVTGAMHTIDGAFGA

Columns and labels:
[1] = Rejection experiments with NF90 membranes (no biofilm); type: physicochemical; details: 1 mM and 10 mM feed in 5 mM NaCl (pH 9.0), 30 min
Experimental: Beneficial Biofilm Degrades Epichlorohydrin. Epichlorohydrin is an emerging water contaminant for which treatment techniques are not well studied. […] Measurements were taken 30 min after permeation began. Feed was in 5 mM NaCl (pH 9.0). Furthermore, when grown on the NF90 membrane, the beneficial biofilm that produces EH degraded epichlorohydrin by more than 39±4% in single pass batch filtration (See FIGS. 29 and 30). […] Biofilms grown for 24 h on NF90 membranes were challenged with 10 mM epichlorohydrin in 5 mM NaCl feed solution (pH 9). The left and adjacent right bars indicate the molar removal of epichlorohydrin (%) at 20 min and 30 min respectively, after starting filtration. The removal of epichlorohydrin by adsorption to cellular biomass was estimated using a dead cell control experiment. EH− is E. coli TG1/pBdcAE50Q-lasI-lasR/pBNos and EH+ is E. coli TG1/pBdcAE50Q-lasI-lasR/pBNos-echA. Dead cells were obtained by autoclaving overnight cultures of the EH+ strain. The error bars are standard deviation for three independent colonies.

biofilm dispersal = details: cited from earlier work

Row | Molecule | passage through NF90 membrane [1] | higher levels of biofilm dispersal (biofilm dispersal)
1 | ClCC1CO1 (centres unmarked) [Epichlorohydrin] | passes through the membrane used | 
2 | B1 |  | six-fold higher
